According to ChEMBL document CHEMBL1201862, “PubChem BioAssay data set” (2004):
Active and inactive are the calls of the source.

How the values were obtained:
Beta Lactamase [1] = target: T1, Beta Lactamase (Pseudomonas aeruginosa, UniProt Q932Y6); assay: VIM-2 metallo-beta-lactamase inhibitor potency, dose response, biochemical, epi-absorbance readout, selective inhibitors (AID 1919)
Beta-lactamase [2] = target: T2, Beta-lactamase (Pseudomonas aeruginosa, UniProt Q79MP6); assay: IMP-1 metallo-beta-lactamase inhibitors, dose response, selectivity assay for VIM-2 inhibitor project, biochemical, epi-absorbance (AID 1920)
T2 sequence (Q79MP6 whole entry): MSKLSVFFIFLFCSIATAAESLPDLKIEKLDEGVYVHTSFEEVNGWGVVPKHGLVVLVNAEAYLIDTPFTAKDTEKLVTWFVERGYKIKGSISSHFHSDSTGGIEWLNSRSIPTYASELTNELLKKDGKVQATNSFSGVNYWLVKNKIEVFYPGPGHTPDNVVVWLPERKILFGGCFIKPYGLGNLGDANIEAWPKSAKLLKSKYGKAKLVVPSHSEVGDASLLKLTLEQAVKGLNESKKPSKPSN

Beta-lactamase [3] = target: Beta-lactamase (Salmonella choleraesuis (strain SC-B67), UniProt Q5J463); assay: Epi-absorbance-based counterscreen for selective VIM-2 inhibitors: dose response biochemical high throughput screening assay to identify inhibitors of TEM-1 serine-beta-lactamase.
Chain of Beta-lactamase (Salmonella choleraesuis (strain SC-B67), UniProt Q5J463) (Q5J463 whole entry): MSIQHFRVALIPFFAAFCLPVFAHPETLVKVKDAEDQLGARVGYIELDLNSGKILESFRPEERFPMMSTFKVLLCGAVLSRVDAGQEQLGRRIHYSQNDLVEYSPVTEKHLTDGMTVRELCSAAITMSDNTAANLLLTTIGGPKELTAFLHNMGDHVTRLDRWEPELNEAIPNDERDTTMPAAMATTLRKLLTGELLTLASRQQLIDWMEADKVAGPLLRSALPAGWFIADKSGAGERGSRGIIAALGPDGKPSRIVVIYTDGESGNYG

Beta-lactamase [4] = target: T2, Beta-lactamase; assay: […] counterscreen for selective VIM-2 inhibitors: dose response biochemical high throughput screening assay to identify inhibitors of IMP-1 metallo-beta-lactamase.
Beta Lactamase [5] = target: T1, Beta Lactamase; assay: VIM-2 inhibitor FRET-based artefact check, dose response, artefact control for selective VIM-2 inhibitor project, biochemical, FRET readout, CCF2 substrate (AID 1926)
[6] = target: T3, Protein disulfide-isomerase (Homo sapiens, UniProt P07237); assay: PDI inhibitors, insulin turbidity readout, confirmation, biochemical, dry powder samples, set 2 (AID 652146)
T3 sequence (P07237 whole entry): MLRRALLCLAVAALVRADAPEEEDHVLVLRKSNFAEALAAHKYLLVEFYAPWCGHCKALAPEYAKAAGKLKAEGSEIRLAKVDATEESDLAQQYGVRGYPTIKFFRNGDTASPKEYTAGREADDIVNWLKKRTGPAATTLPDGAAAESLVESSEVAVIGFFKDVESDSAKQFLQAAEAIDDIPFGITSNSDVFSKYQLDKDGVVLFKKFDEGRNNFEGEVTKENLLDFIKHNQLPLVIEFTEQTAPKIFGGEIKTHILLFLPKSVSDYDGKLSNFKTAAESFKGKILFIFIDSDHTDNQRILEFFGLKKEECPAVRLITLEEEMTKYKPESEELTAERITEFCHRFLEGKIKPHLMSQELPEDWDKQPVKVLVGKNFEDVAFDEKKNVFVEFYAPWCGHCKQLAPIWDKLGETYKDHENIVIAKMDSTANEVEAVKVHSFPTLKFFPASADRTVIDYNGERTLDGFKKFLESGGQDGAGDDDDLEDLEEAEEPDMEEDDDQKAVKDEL

[7] = target: T3, Protein disulfide-isomerase; assay: PDI inhibitors, insulin aggregation turbidity, dose response, biochemical, absorbance, cherry-picked samples (AID 602350); type: functional
[8] = target: T4, Small ubiquitin-related modifier 2 (Homo sapiens, UniProt P61956); assay: inhibitors of SUMO2 protein-protein interaction, dose response, selectivity assay for SUMO1 interaction inhibitor project, biochemical, FRET, human SUMO2, uHTS hits (AID 624384); type: functional; conditions: read-out: IC50_Mean
T4 sequence (P61956 whole entry): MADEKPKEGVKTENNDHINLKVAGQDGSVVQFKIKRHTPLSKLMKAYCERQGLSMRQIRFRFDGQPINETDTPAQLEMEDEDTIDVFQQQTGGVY

[9] = target: DNA (cytosine-5)-methyltransferase 1 (Homo sapiens, UniProt P26358); assay: DNMT1 methyltransferase inhibitors, confirmation, biochemical, fluorescent molecular beacon (AID 602386); type: functional
Chain of DNA (cytosine-5)-methyltransferase 1 (P26358 whole entry): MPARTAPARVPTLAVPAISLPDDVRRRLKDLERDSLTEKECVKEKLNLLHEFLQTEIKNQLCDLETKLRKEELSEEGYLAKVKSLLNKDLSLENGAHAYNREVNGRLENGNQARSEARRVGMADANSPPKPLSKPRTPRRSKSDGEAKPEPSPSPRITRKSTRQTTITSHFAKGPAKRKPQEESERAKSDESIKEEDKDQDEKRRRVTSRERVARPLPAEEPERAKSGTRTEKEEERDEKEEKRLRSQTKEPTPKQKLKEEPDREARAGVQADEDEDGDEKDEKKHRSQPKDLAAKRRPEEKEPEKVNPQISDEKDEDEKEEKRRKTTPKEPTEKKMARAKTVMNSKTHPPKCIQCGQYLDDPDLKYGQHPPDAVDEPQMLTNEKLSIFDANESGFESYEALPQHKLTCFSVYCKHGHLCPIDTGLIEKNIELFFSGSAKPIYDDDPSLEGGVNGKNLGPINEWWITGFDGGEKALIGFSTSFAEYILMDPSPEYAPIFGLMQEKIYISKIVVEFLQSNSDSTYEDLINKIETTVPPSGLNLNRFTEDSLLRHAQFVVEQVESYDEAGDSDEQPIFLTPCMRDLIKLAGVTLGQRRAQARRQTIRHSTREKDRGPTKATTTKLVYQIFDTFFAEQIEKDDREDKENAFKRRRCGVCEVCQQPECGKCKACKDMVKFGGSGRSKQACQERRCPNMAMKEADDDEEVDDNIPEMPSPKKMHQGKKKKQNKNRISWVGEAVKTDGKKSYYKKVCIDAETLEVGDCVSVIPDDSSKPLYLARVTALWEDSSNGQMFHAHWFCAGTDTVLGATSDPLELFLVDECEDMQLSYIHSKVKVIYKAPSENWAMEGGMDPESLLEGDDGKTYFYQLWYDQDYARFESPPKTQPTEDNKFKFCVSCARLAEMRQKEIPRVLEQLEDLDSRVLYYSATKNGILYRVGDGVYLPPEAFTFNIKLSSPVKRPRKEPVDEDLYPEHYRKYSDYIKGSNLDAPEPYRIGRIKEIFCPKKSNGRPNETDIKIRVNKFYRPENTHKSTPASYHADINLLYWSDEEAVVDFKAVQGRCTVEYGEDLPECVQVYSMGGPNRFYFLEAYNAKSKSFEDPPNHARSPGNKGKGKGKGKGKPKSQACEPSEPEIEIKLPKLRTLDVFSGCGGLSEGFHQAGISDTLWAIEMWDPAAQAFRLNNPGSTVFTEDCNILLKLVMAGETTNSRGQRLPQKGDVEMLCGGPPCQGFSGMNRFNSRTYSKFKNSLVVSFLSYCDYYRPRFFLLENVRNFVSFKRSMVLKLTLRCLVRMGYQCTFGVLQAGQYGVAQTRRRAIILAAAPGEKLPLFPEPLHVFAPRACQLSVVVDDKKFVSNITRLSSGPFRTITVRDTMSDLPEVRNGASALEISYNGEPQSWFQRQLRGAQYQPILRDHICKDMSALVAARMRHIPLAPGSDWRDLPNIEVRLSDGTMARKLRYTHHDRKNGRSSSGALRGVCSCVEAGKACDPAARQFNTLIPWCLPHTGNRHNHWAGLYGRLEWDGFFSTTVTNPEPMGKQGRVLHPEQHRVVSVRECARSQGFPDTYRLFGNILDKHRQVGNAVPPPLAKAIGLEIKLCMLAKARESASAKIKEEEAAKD

Beta-galactosidase = Beta-galactosidase (Escherichia coli, UniProt Q8VNN2); assay: beta-galactosidase enzyme inhibitors and activators, dose response, artefact control for CCR6 antagonist project, biochemical, E. coli enzyme, set 3 (AID 504712); type: functional
Chain of Beta-galactosidase (Q8VNN2 whole entry): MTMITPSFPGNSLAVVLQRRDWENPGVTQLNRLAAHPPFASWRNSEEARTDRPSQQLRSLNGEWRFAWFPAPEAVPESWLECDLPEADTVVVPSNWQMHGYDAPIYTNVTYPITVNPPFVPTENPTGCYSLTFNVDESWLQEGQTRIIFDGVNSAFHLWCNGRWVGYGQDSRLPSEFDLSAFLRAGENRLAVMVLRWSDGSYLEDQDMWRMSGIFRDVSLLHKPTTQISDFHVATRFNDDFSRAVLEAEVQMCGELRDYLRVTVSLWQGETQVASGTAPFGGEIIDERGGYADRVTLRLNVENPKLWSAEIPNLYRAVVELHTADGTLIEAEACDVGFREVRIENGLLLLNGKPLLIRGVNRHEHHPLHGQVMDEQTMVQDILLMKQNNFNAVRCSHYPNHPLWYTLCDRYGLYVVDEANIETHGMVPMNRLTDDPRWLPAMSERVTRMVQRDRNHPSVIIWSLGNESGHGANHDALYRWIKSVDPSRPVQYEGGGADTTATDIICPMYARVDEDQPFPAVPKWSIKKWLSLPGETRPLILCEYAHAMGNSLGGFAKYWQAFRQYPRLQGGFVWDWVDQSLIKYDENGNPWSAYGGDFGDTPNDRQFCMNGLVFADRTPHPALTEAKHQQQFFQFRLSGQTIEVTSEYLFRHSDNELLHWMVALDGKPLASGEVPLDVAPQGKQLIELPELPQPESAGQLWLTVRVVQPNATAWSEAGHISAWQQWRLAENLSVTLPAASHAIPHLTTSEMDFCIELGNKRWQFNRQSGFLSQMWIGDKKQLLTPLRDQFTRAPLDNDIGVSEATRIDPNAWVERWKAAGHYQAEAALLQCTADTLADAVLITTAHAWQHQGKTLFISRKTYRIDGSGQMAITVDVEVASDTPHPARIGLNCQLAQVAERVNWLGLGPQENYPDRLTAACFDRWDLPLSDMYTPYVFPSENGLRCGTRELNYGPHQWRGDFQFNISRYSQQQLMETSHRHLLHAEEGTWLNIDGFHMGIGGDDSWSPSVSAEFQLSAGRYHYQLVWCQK

[10] = target: T5, Small ubiquitin-related modifier 1 (Homo sapiens, UniProt P63165); assay: inhibitors of SUMO1 peptide binding, dose response, biochemical, fluorescence polarization, uHTS hits (AID 624382); type: functional; conditions: read-out: IC50_Mean
T5 sequence (P63165 whole entry, the tested form may be a part): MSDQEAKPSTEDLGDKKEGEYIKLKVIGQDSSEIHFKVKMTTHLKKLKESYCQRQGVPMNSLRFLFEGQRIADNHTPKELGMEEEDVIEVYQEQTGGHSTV

[11] = target: T6, Carboxy-terminal domain RNA polymerase II polypeptide A small phosphatase 1 (Homo sapiens, UniProt Q9GZU7); assay: inhibitors of CTDSP1, concentration-response testing, biochemical assay, absorbance-based, actives from ultra-high-throughput screening (AID 540297); type: functional
T6 sequence (Q9GZU7 whole entry): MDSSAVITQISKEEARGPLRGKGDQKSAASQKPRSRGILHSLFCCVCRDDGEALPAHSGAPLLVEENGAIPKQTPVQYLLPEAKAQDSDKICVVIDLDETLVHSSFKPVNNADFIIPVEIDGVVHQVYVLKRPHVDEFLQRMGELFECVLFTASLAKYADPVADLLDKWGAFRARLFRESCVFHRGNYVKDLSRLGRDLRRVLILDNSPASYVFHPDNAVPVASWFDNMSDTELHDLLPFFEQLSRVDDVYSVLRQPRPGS

[12] = target: T5, Small ubiquitin-related modifier 1; assay: inhibitors of SUMO1 partner interactions, dose response, biochemical, FRET (AID 624383); type: functional; conditions: read-out: IC50_Mean
[13] = target: T4, Small ubiquitin-related modifier 2; assay: SUMO2–SIM peptide binding inhibitors, dose response, selectivity assay for SUMO1 interaction inhibitor project, biochemical, fluorescence polarization, uHTS hits (AID 624385); type: functional; conditions: read-out: IC50_Mean
[14] = HeLa cell cytotoxicity, dose response, cytotoxicity control for MgcRacGAP inhibitor project (AID 624300); type: functional
[15] = target: T7, Rac GTPase-activating protein 1 (Homo sapiens, UniProt Q9H0H5); assay: MgcRacGAP GTPase-activating activity inhibitors, confirmation, biochemical, ADP Hunter fluorescence, primary and confirmatory (AID 624330); type: functional
T7 sequence (Q9H0H5 whole entry): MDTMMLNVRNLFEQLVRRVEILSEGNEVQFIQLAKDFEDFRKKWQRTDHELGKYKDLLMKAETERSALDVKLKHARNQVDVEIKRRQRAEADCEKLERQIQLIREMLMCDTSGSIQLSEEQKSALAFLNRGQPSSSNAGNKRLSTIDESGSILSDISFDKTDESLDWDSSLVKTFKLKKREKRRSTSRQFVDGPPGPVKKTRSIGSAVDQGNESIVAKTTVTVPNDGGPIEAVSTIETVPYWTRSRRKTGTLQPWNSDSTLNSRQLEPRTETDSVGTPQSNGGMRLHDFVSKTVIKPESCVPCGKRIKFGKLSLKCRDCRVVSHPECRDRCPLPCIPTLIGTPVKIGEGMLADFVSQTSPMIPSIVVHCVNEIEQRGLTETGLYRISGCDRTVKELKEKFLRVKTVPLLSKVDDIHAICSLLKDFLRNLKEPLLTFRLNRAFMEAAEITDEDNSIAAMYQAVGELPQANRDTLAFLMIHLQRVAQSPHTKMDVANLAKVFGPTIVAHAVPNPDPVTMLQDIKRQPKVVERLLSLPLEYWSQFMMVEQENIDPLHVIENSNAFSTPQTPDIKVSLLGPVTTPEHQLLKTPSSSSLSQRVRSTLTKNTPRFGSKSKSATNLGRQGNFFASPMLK

Vero = assay: Vero cell toxicity, dose response, cytotoxicity control, plate reader, cherry-pick samples (AID 687020); type: functional, cell-based; conditions: Chlorocebus sabaeus
cells [16] = type: functional, cell-based
cells [17] = type: functional, cell-based; remark: listed apart in the source
[18] = target: T8, Scavenger receptor class B member 1 (Mus musculus, UniProt Q61009); assay: inhibitors of SR-BI dependent HDL uptake, dose response, ldlA[mSR-BI] CHO cells, fluorescence plate reader, dry powder, set 9 (AID 623880); type: functional, cell-based
T8 sequence (Q61009 whole entry): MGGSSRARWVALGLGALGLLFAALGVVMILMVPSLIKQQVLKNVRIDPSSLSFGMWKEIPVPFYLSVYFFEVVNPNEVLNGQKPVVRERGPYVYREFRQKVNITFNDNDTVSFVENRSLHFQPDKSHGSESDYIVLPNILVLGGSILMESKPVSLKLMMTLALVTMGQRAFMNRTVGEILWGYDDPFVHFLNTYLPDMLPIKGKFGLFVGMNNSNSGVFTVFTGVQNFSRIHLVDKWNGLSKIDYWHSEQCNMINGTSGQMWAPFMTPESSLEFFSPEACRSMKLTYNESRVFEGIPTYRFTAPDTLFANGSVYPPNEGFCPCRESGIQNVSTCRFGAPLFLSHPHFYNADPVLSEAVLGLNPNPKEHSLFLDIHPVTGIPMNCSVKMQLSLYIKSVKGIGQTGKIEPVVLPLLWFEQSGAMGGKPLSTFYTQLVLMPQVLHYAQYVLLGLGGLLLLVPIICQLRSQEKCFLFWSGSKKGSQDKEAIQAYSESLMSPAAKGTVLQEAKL

[19] = target: T8, Scavenger receptor class B member 1; assay: inhibitors of SR-BI-mediated HDL uptake, dose response, cell-based, ldlA[mSR-BI] CHO, DiI fluorescence, dry powder, set 10 (AID 624029); type: functional
[20] = Fluorescence-based cell-based high throughput dose response assay for inhibitors of the interaction of nucleotide-binding oligomerization domain containing 2 (NOD2) and the receptor-interacting serine-threonine kinase 2 (RIPK2).; type: functional, Homo sapiens
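For EC50 in this document: agonist potency from rise in intracellular calcium fluorescence.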

T1 sequence (Q932Y6 whole entry): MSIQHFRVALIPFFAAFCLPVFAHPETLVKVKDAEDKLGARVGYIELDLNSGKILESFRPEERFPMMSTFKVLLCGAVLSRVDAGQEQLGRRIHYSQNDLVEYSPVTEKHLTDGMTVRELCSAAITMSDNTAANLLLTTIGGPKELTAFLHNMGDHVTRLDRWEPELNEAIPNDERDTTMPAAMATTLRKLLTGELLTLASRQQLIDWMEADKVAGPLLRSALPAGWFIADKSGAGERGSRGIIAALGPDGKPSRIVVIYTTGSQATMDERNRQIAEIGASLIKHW

With `COc1cc(OC)c(OC)cc1/C=N/NC(=O)CC1C(=O)NN=C1C` (stereo not drawn) the IC50 (Beta Lactamase [1]) was 4.22 µM (active), the IC50 (Beta-lactamase [2]) was > 59.6 µM (inactive) and the IC50 (Beta-lactamase [3]) was > 59.6 µM (inactive). The IC50 (Beta-lactamase [4]) was > 59.6 µM (inactive) and the IC50 (Beta Lactamase [5]) was 1.46 µM (active).
In the case of `C=CCOc1ccc(CN2CCC(CCOc3ccccc3)(C(=O)NC3CCCC3)CC2)cc1Cl`, the AC50 [6] is reported as > 30 µM (inactive).
With `O=C1C[C@@H](c2ccc(O[C@@H]3O[C@H](CO)[C@@H](O)[C@H](O)[C@H]3O)cc2)Oc2cc(O)ccc21` [LIQUIRITIN] the AC50 [7] was 15.6 µM (active).
For `O=C(O)C1C(c2ccccc2)C(C(=O)Oc2ccc(O)cc2)C1c1ccccc1` (stereo not drawn), the AC50 [7] was 14.6 µM (active).
With `C=CCOc1ccc(C=NNc2ccc(S(=O)(=O)Nc3ccccc3C(=O)O)cc2[N+](=O)[O-])cc1OC` the IC50 [8] was > 66 µM (inactive), the IC50 [9] was 5.32 µM (active) and the IC50 (Beta-galactosidase) was > 66.6 µM (inactive). For the same molecule, the IC50 [10] was 14 µM (active), the IC50 [11] was 2 µM (active) and the IC50 [12] was 51.2 µM (inactive). For the same molecule, the IC50 [13] was 17.1 µM (active), the CC50 [14] was 100 µM (active) and the IC50 [15] was 65.6 µM (active).
With `Cc1cc(F)cc(-c2cc(C(=O)NCC3CCCCC3)[nH]n2)c1` the AC50 (Vero) was 22.6 µM (active).
For `CC(C)Cn1c(O)cc(=O)nc1SCC(=O)N1CCc2ccccc2C1`, the EC50 (cells [16]) was > 29.9 µM (inactive) and the IC50 (cells [17]) was > 29.9 µM (inactive).
In the case of `C[C@@H]1CN([C@H](C)CO)C(=O)c2cc(NC(=O)C3CCCCC3)ccc2O[C@H]1CN(C)C(=O)c1ccc(Cl)cc1`, the AC50 [18] is reported as 38.9 µM (active) and the AC50 [19] is reported as > 70 µM (inactive).
In the case of `CC1=CC2OC3CC4OC(=O)C=CC=CC(=O)OCCC(C)C(O)C(=O)OCC2(CC1O)C4(C)C31CO1` (stereo not drawn), the IC50 [20] is reported as 49.7 µM (inactive).
